Test results reported in ChEMBL document CHEMBL5143510, “Structure modification and biological evaluation of indole-chalcone derivatives as anti-tumor agents through dual targeting tubulin and TrxR” (Eur J Med Chem, 2022).
Activity calls are given as the source filed them. The calls are words filed in the database; no cut-off is given here.

Legend:
[1] = Cytotoxicity against human HUVEC cells assessed as reduction in cell viability incubated for 48 hrs by MTT assay; format: toxicity, cell-based
MCF7 = experiment: Antiproliferative activity against human MCF7 cells assessed as reduction in cell viability incubated for 48 hrs by MTT assay; format: functional, cell-based; details: MCF7, 48 h
A2780 = experiment: Antiproliferative activity against human A2780 cells assessed as reduction in cell viability incubated for 48 hrs by MTT assay; format: functional, cell-based; details: A2780, 48 h
A549 = experiment: Antiproliferative activity against human A549 cells assessed as reduction in cell viability incubated for 48 hrs by MTT assay; format: functional, cell-based; details: A549, 48 h
Tubulin (Homo sapiens) [2] = biological target: T1, Tubulin (Homo sapiens) (UniProt P68371+Q9H4B7+P0DPH7+P68366+Q13509+Q71U36+P04350+Q3ZCM7+P07437+P68363+Q9BQE3+Q6PEY2+Q13885+Q9BVA1+Q9BUF5); experiment: Disruption of microtubule network in human MHCC97H cells assessed as dotted morphology at 5 to 50 nM incubated for 24 hrs by Hoechst 33342 staining based confocal microscopy; format: cell-based; details: dose 5-50 nM
[3] = Cytotoxicity against human L02 cells assessed as reduction in cell viability incubated for 48 hrs by MTT assay; format: toxicity, cell-based
[4] = Selectivity ratio, ratio of IC50 for cytotoxicity against human L02 cells to IC50 for antiproliferative activity against human MHCC97H cells; format: toxicity, cell-based; details: L02 cells versus MHCC97H cells, read-out: Ratio IC50
NCI/ADR-RES [5] = experiment: Antiproliferative activity against adriamycin resistant human MCF7/ADR cells assessed as reduction in cell viability incubated for 48 hrs by MTT assay; format: functional, cell-based
[6] = Antiproliferative activity against paclitaxel resistant human A2780/PTX cells assessed as reduction in cell viability incubated for 48 hrs by MTT assay; format: functional, cell-based
[7] = Resistance index, ratio of IC50 for antiproliferative activity against adriamycin resistant human MCF7/ADR cells to IC50 for antiproliferative activity against human MCF7 cells; format: functional
[8] = Resistance index, ratio of IC50 for antiproliferative activity against paclitaxel resistant human A2780/PTX cells to IC50 for antiproliferative activity against human A2780 cells; format: functional
MHCC97H [9] = experiment: Induction of morphological changes in human MHCC97H cells assessed as cell shrinkage at 5 to 50 nM incubated for 48 hrs by phase contrast microscopic analysis; format: functional, cell-based; details: dose 5-50 nM
HUVEC = experiment: Induction of morphological changes in human HUVEC cells assessed as cell shrinkage at 50 nM incubated for 48 hrs by phase contrast microscopic analysis; format: toxicity, cell-based; details: 0.05 µM
Tubulin (Homo sapiens) [10] = biological target: T1, Tubulin (Homo sapiens); experiment: Disruption of microtubule network in human MHCC97H cells assessed as punctate morphology at 5 to 50 nM incubated for 24 hrs by Hoechst 33342 staining based confocal microscopy; format: cell-based; details: dose 5-50 nM
Tubulin (Homo sapiens) [11] = biological target: T1, Tubulin (Homo sapiens); experiment: Inhibition of colchicine binding to tubulin (unknown origin) at 1.25 uM by competitive binding assay relative to control; format: protein-complex assay
Tubulin (Homo sapiens) [12] = biological target: T1, Tubulin (Homo sapiens); experiment: Inhibition of colchicine binding to tubulin (unknown origin) at 10 uM by competitive binding assay relative to control; format: protein-complex assay
Tubulin (Homo sapiens) [13] = biological target: T1, Tubulin (Homo sapiens); experiment: Induction of microtubule disruption in human MHCC97H cells assessed as occurence of cell shrinkage at 10 nM measured after 8 hrs by immunofluorescence based confocal microscopic analysis
MHCC97H [14] = experiment: Induction of cell cycle arrest in human MHCC97H cells assessed as increase in accumulation of cells at G2/M phase at 5 to 50 nM measured after 48 hrs by propidium iodide staining based flow cytometry; format: functional; details: dose 5-50 nM
MHCC97H [15] = experiment: Induction of cell cycle arrest in human MHCC97H cells assessed as decrease in accumulation of cells at G1 phase at 5 to 50 nM measured after 48 hrs by propidium iodide staining based flow cytometry; format: functional; details: dose 5-50 nM
[16] = Inhibition of TrxR (unknown origin) using DTNB as substrate incubated for 5 mins in presence of NADPH followed by substrate addition by microplate reader analysis; set-up: species or system Homo sapiens
[17] = Inhibition of TrxR in human MHCC97H cells using DTNB as substrate preincubated for 4 hrs in presence of NADPH followed by substrate addition by microplate reader analysis; format: cell-based
Homo sapiens [18] = organism: Homo sapiens; experiment: Irreversible inhibition of TrxR (unknown origin) using DTNB as substrate at 2.5 uM incubated for 2 hrs in presence of NADPH followed by substrate addition ultrafiltration based microplate reader analysis relative to control
Homo sapiens [19] = organism: Homo sapiens; experiment: Irreversible inhibition of TrxR (unknown origin) using DTNB as substrate at 10 uM incubated for 2 hrs in presence of NADPH followed by substrate addition ultrafiltration based microplate reader analysis relative to control
A2780/PTX = experiment: Downregulation of TrxR in paclitaxel resistant human A2780/PTX cells at 10 to 50 nM incubated for 48 hrs by Western blot analysis; format: functional, cell-based; details: dose 10-50 nM
NCI/ADR-RES [20] = experiment: Downregulation of TrxR in adriamycin resistant human MCF7/ADR cells at 10 to 50 nM incubated for 48 hrs by Western blot analysis; format: functional, cell-based; details: dose 10-50 nM
MHCC97H [21] = experiment: Induction of ROS production in human MHCC97H cells assessed as increase in accumulation ROS level at 5 to 50 nM incubated for 4 hrs by DCFH-DA staining based fluorescence microscopy; format: functional, cell-based; details: dose 5-50 nM
MHCC97H [22] = experiment: Induction of apoptosis in human MHCC97H cells assessed as chromatin condensation at 5 to 50 nM incubated for 24 hrs by Hoechst 33342 staining based fluorescence microscopy; format: functional, cell-based; details: dose 5-50 nM
MHCC97H [23] = experiment: Induction of apoptosis in human MHCC97H cells assessed as increase in total apoptotic cells at 5 to 50 nM by Annexin V-FITC/PI staining based flow cytometry method; format: functional, cell-based; details: dose 5-50 nM, time 24-48 hrs, TDE = time-dependent effect
MHCC97H [24] = experiment: Induction of apoptosis in human MHCC97H cells assessed as downregulation of Bcl-2 expression at 5 to 50 nM measured after 24 to 48 hrs by Western blot analysis; format: functional, cell-based; details: dose 5-50 nM, time 24-48 hrs
MHCC97H [25] = experiment: Induction of apoptosis in human MHCC97H cells assessed as upregulation of Bax expression measured after 24 to 48 hrs by Western blot analysis; format: functional, cell-based; details: dose 5-50 nM, time 24-48 hrs, DDE = dose-dependent effect
MHCC97H [26] = experiment: Antitumor activity against human MHCC97H cells xenografted in BALB/c mouse assessed as tumor growth inhibition at 30 mg/kg, ip administered every other day for 30 days; format: functional; details: 720 h, time 30 day, read-out: TGI
Homo sapiens [27] = organism: Homo sapiens; experiment: Inhibition of TrxR (unknown origin) assessed as alkylation of TrxR by measuring weak band intensity using BIAM as substrate at 10 to 40 uM preincubated for 2 hrs in presence of NADPH followed by substrate addition and measured after 30 mins by Western blot analysis; details: dose 10-40 µM, time 2.5 hrs
Homo sapiens [28] = organism: Homo sapiens; experiment: Mixed type inhibition of TrxR (unknown origin) using various concentrations of DTNB as substrate at 1.875 to 15 uM preincubated for 15 mins followed by substrate addition by double reciprocal Lineweaver-Burk plot analysis; details: dose 1.875-15 µM
Tubulin (Homo sapiens) [29] = biological target: T1, Tubulin (Homo sapiens); experiment: Binding affinity to tubulin (unknown origin) assessed as reduction in peak area in the filtrate at 30 uM incubated for 1 hr by HPLC analysis; format: protein-complex assay

`COc1ccc2c(/C=C(\C)C(=O)c3cc(OC)c(OC)c([Se]C)c3)c[nH]c2c1` showed an IC50 at 48 h [1] of 56 nM, an IC50 (MCF7) of 35 nM and an IC50 (A2780) of 18 nM. The IC50 (A549) was 8 nM, the Activity (Tubulin (Homo sapiens) [2]) was “Active” and the IC50 at 48 h [3] was 398 nM. For the same compound, the selectivity ratio [4] was 66.3, the IC50 (NCI/ADR-RES [5]) was 18 nM and the IC50 [6] was 20 nM. For the same compound, the “Ratio IC50” value [7] was 0.51, the “Ratio IC50” value [8] was 1.11 and the Activity (MHCC97H [9]) was “Active”. The Activity (HUVEC) was “Toxic”, the Activity (Tubulin (Homo sapiens) [10]) was “Active” and the inhibition (Tubulin (Homo sapiens) [11]) was 56.5%. For the same compound, the inhibition (Tubulin (Homo sapiens) [12]) was 94.4%, the Activity (Tubulin (Homo sapiens) [13]) was “Active” and the Activity (MHCC97H [14]) was “Active”. For the same compound, the Activity (MHCC97H [15]) was “Active”, the IC50 [16] was 3730 nM and the IC50 [17] was 10200 nM. For the same compound, the inhibition (Homo sapiens [18]) was 58.4%, the inhibition (Homo sapiens [19]) was 91.4% and the Activity (A2780/PTX) was “Active”. For the same compound, the Activity (NCI/ADR-RES [20]) was “Active”, the Activity (MHCC97H [21]) was “Active” and the Activity (MHCC97H [22]) was “Active”. For the same compound, the Activity (MHCC97H [23]) was “Tde”, the Activity (MHCC97H [24]) was “Active” and the Activity (MHCC97H [25]) was “Dde”. For the same compound, the inhibition in vivo at 30 mg/kg (MHCC97H [26]) was 75.4%, the inhibition (Homo sapiens [27]) was “Active” and the inhibition (Homo sapiens [28]) was “Active”. The Activity (Tubulin (Homo sapiens) [29]) was “Active”.
